Experimental data published in US20140057915A1, “KINASE INHIBITORS” (TOPIVERT PHARMA LIMITED, priority 2012, published 2014).

Experiments:
IL-8 release, HT29 cells = assay: IL-1β-induced IL-8 release in HT29 cells; type: cell-based; conditions: Homo sapiens, HT-29; IL-1β stimulated; read-out: IC50 Values for Inhibition of Cytokine Release, HT29 cells, IL-8
Procedure: (d) IL-1β-Induced IL-8 Release in HT29 Cells
HT29 cells, a human colon adenocarcinoma cell line, are plated in a 96 well plate (24 hrs) and pre-treated with compounds at the desired concentration for 2 hours before addition of 5 ng/ml of IL-1β (Abeam) for 24 hours, Supernatants are harvested for IL-8 quantification by Sandwich ELISA (Duo-set, R&D System). The IC50 is determined from the dose response curve.

IL-8 release, PBMCs = assay: LPS-induced IL-8 release in PBMC cells; type: cell-based; conditions: Homo sapiens, LPS stimulated, read-out: IC50 Values for Inhibition of Cytokine Release, PBMCs, IL-8
How it was run: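 PBMCs from healthy donors pretreated with compound for 2 h, then stimulated with 1 ng/ml LPS (E. coli 0111:B4) for 24 h at 37 °C, 5% CO2. Supernatant IL-8 and TNFα measured by sandwich ELISA with fluorescence read-out.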

IFN gamma release, PBMCs = assay: IFN gamma release in CD3/CD28 stimulated PBMC cells; type: cell-based; conditions: Homo sapiens, read-out: IC50 Values for Inhibition of Cytokine Release, PBMCs, IFNγ
GSK3α [1] = target: T1, GSK3α (Homo sapiens, UniProt P49840); assay: GSK 3α enzyme inhibition (FRET), Method 2; type: biochemical; conditions: Table 4a2, different laboratory
B-Raf = B-Raf (Homo sapiens, UniProt P15056); assay: Enzyme binding assay (Kinomescan)
Procedure: Enzyme Binding Assays (Kinomescan)
The kinase enzyme binding activities of compounds disclosed herein were determined using a proprietary assay which measures active site-directed competition binding to an immobilized ligand (Fabian, M. A. et al., Nature Biotechnol., 2005, 23:329-336). These assays were conducted by DiscoverX (formerly Ambit; San Diego, Calif.). The percentage inhibition produced by incubation with a test compound is calculated relative to the non-inhibited control.

d-U937 cells = assay: Cell viability: MTT assay; type: cell-based, human; conditions: 1 μg/mL
How it was run: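 Differentiated U937 cells exposed to compound at 1 or 10 μg/mL, either 4 h in 5% FCS or 24 h in 10% FCS RPMI1640. MTT then added for 1 h, formazan dissolved in DMSO and read at 550 nm. Viability loss given as % versus 0.5% DMSO vehicle; apparent gains appear negative.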

GSK3α [2] = target: T1, GSK3α; assay: GSK 3α enzyme inhibition (FRET), Method 1; type: biochemical; conditions: Table 4a1
How it was run: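 GSK3α was preincubated with test compound for 2 hr at RT, then a FRET peptide substrate and ATP were added for 1 hr. Protease development for 1 hr cleaved only non-phosphorylated peptide, and phosphorylation was read as the coumarin/fluorescein emission ratio. Concentrations given are those of the added solutions: enzyme 500 ng/mL, peptide 8 μM, ATP 40 μM.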

HRV16 in MRC5 cells = assay: HRV16 induced CPE in MRC5 cells; type: cell-based; conditions: Human rhinovirus sp., HRV-16
How it was run: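 MRC-5 cells pre-treated with compound 2 hr, infected with HRV16 at MOI 1 (DMEM, 5% FCS, 1.5 mM MgCl2) for 1 hr at 33 °C, then re-dosed after virus washout and cultured 4 days.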

T1 sequence (P49840 whole entry): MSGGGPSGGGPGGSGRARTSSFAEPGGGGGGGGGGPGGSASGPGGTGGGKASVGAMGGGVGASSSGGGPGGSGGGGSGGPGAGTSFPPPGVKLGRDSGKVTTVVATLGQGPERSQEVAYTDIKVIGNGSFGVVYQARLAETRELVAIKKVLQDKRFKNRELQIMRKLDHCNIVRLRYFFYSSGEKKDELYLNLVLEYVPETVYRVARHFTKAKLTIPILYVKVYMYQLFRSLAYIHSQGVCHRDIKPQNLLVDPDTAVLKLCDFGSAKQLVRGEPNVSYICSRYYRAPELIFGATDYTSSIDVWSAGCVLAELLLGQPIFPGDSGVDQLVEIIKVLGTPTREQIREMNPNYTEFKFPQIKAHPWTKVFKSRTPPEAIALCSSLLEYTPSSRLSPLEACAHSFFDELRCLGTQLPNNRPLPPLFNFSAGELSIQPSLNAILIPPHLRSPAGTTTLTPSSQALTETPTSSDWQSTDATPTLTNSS
B-Raf, sequence (P15056 whole entry): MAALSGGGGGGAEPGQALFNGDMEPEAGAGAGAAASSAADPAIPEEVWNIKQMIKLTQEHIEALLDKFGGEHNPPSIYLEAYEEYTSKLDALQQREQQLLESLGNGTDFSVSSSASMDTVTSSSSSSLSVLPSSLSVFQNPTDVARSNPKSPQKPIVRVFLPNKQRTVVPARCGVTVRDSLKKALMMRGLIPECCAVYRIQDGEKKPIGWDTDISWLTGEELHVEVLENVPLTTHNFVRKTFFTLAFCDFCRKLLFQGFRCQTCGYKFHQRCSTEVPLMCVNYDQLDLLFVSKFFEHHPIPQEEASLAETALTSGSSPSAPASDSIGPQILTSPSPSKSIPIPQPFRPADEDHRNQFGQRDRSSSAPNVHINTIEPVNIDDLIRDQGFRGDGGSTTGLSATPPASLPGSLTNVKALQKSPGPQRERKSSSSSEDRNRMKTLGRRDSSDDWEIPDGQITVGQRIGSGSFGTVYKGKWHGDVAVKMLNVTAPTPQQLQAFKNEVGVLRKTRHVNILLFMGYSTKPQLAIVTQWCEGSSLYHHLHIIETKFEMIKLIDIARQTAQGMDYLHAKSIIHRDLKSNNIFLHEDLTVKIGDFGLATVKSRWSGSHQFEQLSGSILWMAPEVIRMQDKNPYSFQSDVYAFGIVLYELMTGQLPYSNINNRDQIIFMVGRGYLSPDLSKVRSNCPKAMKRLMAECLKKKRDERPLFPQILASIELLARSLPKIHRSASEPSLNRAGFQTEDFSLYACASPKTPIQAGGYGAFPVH

SMILES | IC50 (IL-8 release, HT29 cells) | IC50 (IL-8 release, PBMCs) | IC50 (IFN gamma release, PBMCs) | IC50 (GSK3α [1]) | effect on the binding of the kinase B-Raf to its standard ligand (B-Raf; KINOMEscan) | Cell viability at time point in d-U937 cells, 4 h (d-U937 cells) | Cell viability at time point in d-U937 cells, 24 h (d-U937 cells) | IC50 (GSK3α [2]) | IC50 (HRV16 in MRC5 cells) | inhibition at 0.5 µM (B-Raf; read-out: % Inhibition of kinase binding at 500 nM, B-Raf)
C#Cc1cc(Nc2nccc(Oc3ccc(NC(=O)Nc4cc(C(C)(C)C)nn4-c4ccc(OC)cc4)c4ccccc34)n2)cc(C(=O)NCCN2CCOCC2)c1 [Example 77, 3-((4-((4-(3-(3-(tert-Butyl)-1-(4-methoxyphenyl)-1H-pyrazol-5-yl)ureido)-naphthalen-1-yl)oxy)pyrimidin-2-yl)amino)-5-ethynyl-N-(2-morpholinoethyl)benzamide] | 2 nM | 1.1 nM | 0.8 nM | 5950 nM | did not have any effect on the binding |  |  |  |  | 
COc1cc(Nc2cc(Oc3ccc(NC(=O)Nc4cc(C(C)(C)C)nn4-c4ccc(C)cc4)c4ccccc34)ccn2)cc(C(=O)NCCN2CCOCC2)c1 [Example 1, 3-((4-((4-(3-(3-(tert-Butyl)-1-(p-tolyl)-1H-pyrazol-5-yl)ureido)naphthalen-1-yl)oxy)pyridin-2-yl)amino)-5-methoxy-N-(2-morpholinoethyl)benzamide] | 10.2 nM | 2.4 nM | 3 nM | 6970 nM |  | −ve (−ve and +ve indicate that the value is below and above respectively, the no significant effect threshold, defined as 30% inhibition at 1 μg/mL at the time point indicated) | −ve (−ve and +ve indicate that the value is below and above respectively, the no significant effect threshold, defined as 30% inhibition at 1 μg/mL at the time point indicated) | 2860 nM | 2.9 nM | 
COc1cc(Nc2nccc(Oc3ccc(NC(=O)Nc4cc(C(C)C)nn4-c4ccc(C)cc4)c4ccccc34)n2)cc(C(=O)NCCN2CCOCC2)c1 [Example 8, 3-((4-((4-(3-(3-Isopropyl-1-(p-tolyl)-1H-pyrazol-5-yl)ureido)naphthalen-1-yl)oxy)pyrimidin-2-yl)amino)-5-methoxy-N-(2-morpholinoethyl)benzamide] | 4.1 nM | 1.8 nM |  | ≥ 13200 nM |  | −ve (−ve and +ve indicate that the value is below and above respectively, the no significant effect threshold, defined as 30% inhibition at 1 μg/mL at the time point indicated) | −ve (−ve and +ve indicate that the value is below and above respectively, the no significant effect threshold, defined as 30% inhibition at 1 μg/mL at the time point indicated) | 7950 nM | 5.4 nM | 29%
